The values below come from PubChem BioAssay AID1033 (Sanford-Burnham Center for Chemical Genomics, 2008).

Activity calls are given as the source filed them. No rule for the calls is given here.

In the test the target is Chaperone protein DnaK (Escherichia coli (strain K12)) (UniProt P0A6Y8). As to the kind of experiment: E. coli DnaK SBD ligand binding – biophysical, NMR, chaperone (AID 1033). The note with it: Purified DnaK SBD.
Chain of Chaperone protein DnaK (Escherichia coli (strain K12)) (P0A6Y8 whole entry, looked up): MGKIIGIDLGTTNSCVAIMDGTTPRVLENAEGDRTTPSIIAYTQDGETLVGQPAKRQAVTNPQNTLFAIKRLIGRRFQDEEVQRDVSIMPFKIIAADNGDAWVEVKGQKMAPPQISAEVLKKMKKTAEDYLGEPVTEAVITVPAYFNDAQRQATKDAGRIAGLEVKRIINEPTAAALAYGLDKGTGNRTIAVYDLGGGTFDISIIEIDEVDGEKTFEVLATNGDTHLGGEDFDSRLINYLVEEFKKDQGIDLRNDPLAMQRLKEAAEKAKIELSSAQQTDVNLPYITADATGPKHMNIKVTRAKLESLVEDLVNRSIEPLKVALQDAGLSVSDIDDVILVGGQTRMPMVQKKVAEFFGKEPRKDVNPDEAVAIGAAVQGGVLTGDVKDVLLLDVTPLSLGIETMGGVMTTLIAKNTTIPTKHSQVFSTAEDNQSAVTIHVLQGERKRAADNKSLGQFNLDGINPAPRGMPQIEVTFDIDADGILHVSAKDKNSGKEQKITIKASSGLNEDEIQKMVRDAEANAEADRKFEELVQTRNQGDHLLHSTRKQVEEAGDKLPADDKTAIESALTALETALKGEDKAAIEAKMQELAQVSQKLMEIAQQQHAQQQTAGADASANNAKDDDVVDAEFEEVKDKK
Regarding `COc1cc(C(=S)N2CCOCC2)ccc1O`, the Kd – broadly, the free concentration of one partner at which half of the binding sites on the other are occupied at equilibrium, for simple one-to-one binding – was > 4 mM (inactive). As to `CC(=O)O[C@H]1CCC2(C)C3=C(CCC2C1(C)C)[C@@]1(C)CC[C@@H](C(C)CCC=C(C)C)[C@]1(C)CC3` (stereo partly specified), the Kd was > 4 mM (inactive). For `Cc1cc(O)c2c(c1)C(=O)c1cccc(O)c1C2=O`, the Kd is > 4 mM (inactive). Under `COc1cc([C@H]2Oc3cc([C@H]4Oc5cc(O)cc(O)c5C(=O)[C@@H]4O)ccc3O[C@@H]2CO)ccc1O` stands > 4 mM (inactive). Take `NCc1ccc(N2CCOCC2)cc1`: the Kd was > 4 mM (inactive).

`COc1ccc(-c2coc3c(O)c(OC)ccc3c2=O)cc1`: the Kd is > 4 mM (inactive). As for `COn1c(=O)c(C)[n+]([O-])c2ccccc21`, the figure is > 4 mM (inactive). With `CC(=O)Nc1ccccc1-c1ccccc1NC(C)=O`, the Kd was > 4 mM (inactive). As for `C[C@H]1[C@H](C)CC[C@]2(C(=O)O)CC[C@]3(C)C(=CCC4[C@@]5(C)C[C@@H](O)[C@H](O)[C@@](C)(CO)C5[C@H](O)C[C@]43C)[C@H]12` (stereo partly specified), the figure is > 4 mM (inactive).

For the compound `O=C(O)CCS(=O)(=O)c1ccccc1`, the Kd is > 4 mM (inactive). For the compound `O=C(Nc1ccc(O)cc1)N1CCOCC1`, the Kd is > 4 mM (inactive). For the compound `Nc1cccc(OC(F)(F)F)c1`, the Kd was > 4 mM (inactive).

As to `COc1ccc2c(c1)OC/C(=C\c1ccc(OC)c(O)c1)C2=O`, the Kd is > 4 mM (inactive).

For `CC1=CC2C(CC1=O)C(C)=CCC2C(C)C` (stereo unspecified), the Kd is > 4 mM (inactive).

`Cc1cc[n+](-c2nc([O-])sc2C=O)cc1`: the Kd is > 4 mM (inactive).

Turning to `COc1cc(OC)c(-c2nc3cnccc3n2C)cc1OC`, the Kd was > 4 mM (inactive). As for `Cc1cc(C(=O)NN2CCOCC2)c(C)o1`, the Kd is > 4 mM (inactive). As for `O=C1CNc2cc(C(=O)O)ccc2N1`, the Kd is > 4 mM (inactive). Consider `COc1ccc(C(=O)NC2=NCCS2)cc1OC`, for which the Kd is > 4 mM (inactive). Under `O=c1[nH]cc(NC(=S)N2CCOCC2)c(=O)[nH]1` stands > 4 mM (inactive). In the case of `S=C(NCC1CCCO1)NC1CC1` (stereo unspecified), the Kd is > 4 mM (inactive). Consider `Cc1occc1C(=O)Nc1nnc(-c2ccncc2)s1`, for which the Kd was > 4 mM (inactive). Consider `CC1=NN2C(=N)CC(=O)N=C2S1`, for which the Kd was > 4 mM (inactive).

`NC(=O)CNC(=O)c1ccc2ccccc2n1`: the Kd was > 4 mM (inactive).

As for `Cc1[nH]c2ccccc2c1C(=O)CSc1ncn[nH]1`, the Kd is > 4 mM (inactive). Under `CCn1ccc(C(=O)Nc2nccs2)n1` stands > 4 mM (inactive). For the compound `Cc1nnc(N2CCN(c3ccccc3)CC2)[nH]c1=O`, the Kd is > 4 mM (inactive). With `O=C(NCc1ccco1)c1ccc(Br)s1`, the Kd was > 4 mM (inactive). Consider `Cn1nc(-c2cccs2)cc1N`, for which the Kd was > 4 mM (inactive). With `COc1ccc2[nH]cc(CCN(C)C)c2c1`, the Kd is > 4 mM (inactive). Under `O=c1c(-c2cc(O)c(O)c(O)c2)coc2cc(O)c(O)c(O)c12` stands > 4 mM (inactive); under `C=C(C)[C@@H]1CC[C@]2(CO)CC[C@]3(C)[C@H](CCC4[C@@]5(C)CC[C@H](O)C(C)(C)C5CC[C@]43C)C12` (stereo partly specified), > 4 mM (inactive); under `O=C(c1ccc(F)cc1)C1CCNCC1`, > 4 mM (inactive). As for `CN1CCN(C(=O)c2ccccc2N)CC1`, the Kd was > 4 mM (inactive). As to `O=c1/c(=C/c2ccccc2F)sc2ncnn12`, the Kd is > 4 mM (inactive). With `O=S(=O)(N1CCCCC1)n1nnc2ccccc21`, the Kd result is “inactive”.

On to `CN1CN(Cc2ccccc2)CN/C1=N/[N+](=O)[O-]`, for which the Kd was > 4 mM (inactive).

`CC(C)=CCCC1(C)C=Cc2c(O)c3c(c(CC=C(C)C)c2O1)OC12C(=CC4CC1C(C)(C)OC2(C/C=C(/C)C(=O)O)C4=O)C3=O` (stereo unspecified): the Kd was > 4 mM (inactive). Consider `O=C(NCCO)c1cc2ccccc2c(=O)s1`, for which the Kd is > 4 mM (inactive). For `COc1ccc(C)cc1S(=O)(=O)Nc1ccccc1C`, the Kd was > 4 mM (inactive). Under `NC(=O)NCCCC(N)C(=O)O` (stereo unspecified) stands > 4 mM (inactive); under `COc1nc(C)ccc1-c1noc(-c2ccco2)n1`, > 4 mM (inactive); under `Cn1[nH]c(C(F)(F)F)cc1=O`, > 4 mM (inactive). As to `O=C1C2CC=CCC2C(=O)N1c1ccccc1O` (stereo unspecified), the Kd was > 4 mM (inactive). As for `COc1ccc(-c2cc(=O)c3c(O)cc(O[C@@H]4O[C@H](CO[C@H]5O[C@H](C)[C@@H](O)[C@H](O)[C@@H]5O)[C@@H](O)[C@H](O)[C@H]4O)cc3o2)cc1O`, the Kd is > 4 mM (inactive).

For `O=C1CN(C(=O)CN2CCOCC2)c2ccccc2N1`, the Kd was > 4 mM (inactive). For `COc1cc2nc(-c3cccs3)oc(=O)c2cc1OC`, the Kd is > 4 mM (inactive). As for `N#Cc1c(N)c(C(=O)c2ccccc2)n2c1CCC2`, the figure is > 4 mM (inactive).

As to `CC(C1OC(C)(C)C(O)C1O)[C@@H]1CC[C@]2(C)C3=CCC4C(C)(C)C(=O)CC[C@]4(C)C3CC[C@@]12C` (stereo partly specified), the Kd was > 4 mM (inactive). In the case of `Cc1nc(CC(=O)O)c(-c2ccccc2)s1`, the Kd is > 4 mM (inactive). On to `Cc1cc(=O)oc2cc(O)c(O)cc12`, for which the Kd is > 4 mM (inactive).

With `CC(=O)NCC1OCCc2ccccc21` (stereo unspecified), the Kd was > 4 mM (inactive). With `O=C(Oc1ccc2c(c1)CCC2)N1CCOCC1`, the Kd was > 4 mM (inactive).

In the case of `CNC(=O)c1ccccc1-c1ccccc1`, the Kd was > 4 mM (inactive). For `OC[C@@H](O)[C@@H](O[C@@H]1O[C@H](CO)[C@@H](O)[C@H](O)[C@H]1O)[C@H](O)[C@@H](O)CO`, the Kd was > 4 mM (inactive). For `O=C1CCC(=O)N1CNc1ccccc1`, the Kd is > 4 mM (inactive). For `COc1cc(C/C=C/c2ccccc2)c(OC)cc1O`, the Kd is > 4 mM (inactive). Under `O=[n+]1cc(C2=CC=CCC2)n([O-])c2c1CCCCC2` stands > 4 mM (inactive); under `Nc1ccc(OCc2ccccc2)cc1`, > 4 mM (inactive). `CC(=O)Oc1cccc2ccc(=O)[nH]c12`: the Kd was > 4 mM (inactive). With `CC(C)CCCC(C)[C@H]1CCC2C3CC[C@H]4CC(=O)CC[C@]4(C)C3CC[C@@]21C` (stereo partly specified), the Kd was > 4 mM (inactive). Regarding `Cn1c(NCc2ccccc2O)nc2ccccc21`, the Kd was > 4 mM (inactive). As for `O=C(c1ccncc1)c1ccc(Br)cc1`, the figure is > 4 mM (inactive); as for `C(=Nn1cnnc1)c1ccccc1`, > 4 mM (inactive). Consider `Cc1cc(C)n2nc(C(=O)Nc3cccnc3)nc2n1`, for which the Kd is > 4 mM (inactive). For `COC(=O)[C@@H]1OC(=O)C2OC23[C@@]1(C)CCC1[C@]2(C)C(C[C@H](O)[C@]13C)C(C)(C)[C@H](OC(C)=O)C[C@@H]2OC(C)=O` (stereo partly specified), the Kd was > 4 mM (inactive). Under `O=C(O)c1coc2c1C(=O)CCC2` stands > 4 mM (inactive); under `CC(=O)NN1C(=O)/C(=C\c2ccc(O)cc2)SC1=S`, > 4 mM (inactive); under `C=C1[C@H]2CC[C@@]3(C)[C@H](c4ccoc4)OC(=O)C[C@]13O[C@H]1C[C@H](O)C(C)(C)[C@H](CC(=O)OC)[C@]12C`, > 4 mM (inactive). On to `Cc1nc(-c2ccccc2)sc1C(N)=O`, for which the Kd was > 4 mM (inactive). As to `CCSc1n[nH]c(=O)[nH]c1=O`, the Kd is > 4 mM (inactive).

As for `COc1cc(C(=O)O[C@H]2CC[C@@]3(C)[C@@H]4CC[C@H]5[C@]6(O)C[C@H](O)[C@@]7(O)[C@@H](CN8C[C@@H](C)CC[C@H]8[C@@]7(C)O)[C@]6(O)C[C@@]53OC24O)cc(OC)c1OC`, the Kd was > 4 mM (inactive). `c1ccc(CCc2nc(-c3ccccn3)no2)cc1`: the Kd is > 4 mM (inactive).

Turning to `Nc1nnc(SCc2ccccc2Cl)s1`, the Kd is > 4 mM (inactive).

As for `CC1(C)C(=O)[C@@H]2C[C@@]3(O)C4=CC(=O)O[C@@H](c5ccoc5)[C@]4(C)CCC3C(C)(C2=O)[C@H]1CC(=O)O` (stereo partly specified), the Kd was > 4 mM (inactive). As for `O=C(O)c1cccc2c1OCCO2`, the Kd was > 4 mM (inactive). For `CCSc1nc2ccccc2[nH]1`, the Kd was > 4 mM (inactive). As to `C=CCc1ccc2c(c1)OCO2`, the Kd was > 4 mM (inactive). `CCOC(=O)Cn1cnc2sc3c(c2c1=O)CCC3`: the Kd is > 4 mM (inactive). For `COc1ccc(Cl)cc1NC(=O)c1ccco1`, the Kd is > 4 mM (inactive). As for `OC1CCC(C(F)(F)F)CC1` (stereo unspecified), the figure is > 4 mM (inactive); as for `O=c1/c(=C\c2cccnc2)sc2nc3ccccc3n12`, > 4 mM (inactive). Consider `CNC(=S)Nc1ccc(C(=O)O)cc1`, for which the Kd is > 4 mM (inactive). With `COc1ccc(-c2cc3nc4n(c(=O)c3s2)CCC4)cc1`, the Kd was > 4 mM (inactive). `Nc1nc(SCc2ccc3c(c2)OCCO3)n[nH]1`: the Kd is > 4 mM (inactive). Under `O=C(NCc1n[nH]c(=O)c2ccccc12)C1CC1` stands > 4 mM (inactive). For the compound `Nc1scc[n+]1CC(=O)[O-]`, the Kd was > 4 mM (inactive). Take `Nc1ccc2c(c1)OCO2`: the Kd was > 4 mM (inactive).

As for `COC(=O)c1ccccc1NC(=O)c1cc[n+]([O-])cc1`, the Kd was > 4 mM (inactive). With `O=C(O)C1CNc2ccccc2O1` (stereo unspecified), the Kd is > 4 mM (inactive).

Turning to `COC(=O)Cc1csc(N)n1`, the Kd was > 4 mM (inactive). Turning to `CC(=O)N1CCc2cc(NC(=O)c3ccc(C)cc3)ccc21`, the Kd is > 4 mM (inactive).

Consider `O=C(O)CCc1c[nH]c2ccccc12`, for which the Kd was > 4 mM (inactive).

As to `C[C@@H]1O[C@@H](O[C@H]2[C@@H](Oc3cc(O)c4c(c3)O[C@H](c3ccc(O)cc3)CC4=O)O[C@H](CO)[C@@H](O)[C@@H]2O)[C@H](O)[C@H](O)[C@H]1O`, the Kd was > 4 mM (inactive). On to `N/C(=N/O)C1COc2ccccc2O1` (stereo unspecified), for which the Kd was > 4 mM (inactive). As to `COc1ccc(Cl)cc1-c1nc(-c2ccncc2)no1`, the Kd was > 4 mM (inactive).
